Some results are limits rather than exact numbers.

T1 sequence (P48775 whole entry): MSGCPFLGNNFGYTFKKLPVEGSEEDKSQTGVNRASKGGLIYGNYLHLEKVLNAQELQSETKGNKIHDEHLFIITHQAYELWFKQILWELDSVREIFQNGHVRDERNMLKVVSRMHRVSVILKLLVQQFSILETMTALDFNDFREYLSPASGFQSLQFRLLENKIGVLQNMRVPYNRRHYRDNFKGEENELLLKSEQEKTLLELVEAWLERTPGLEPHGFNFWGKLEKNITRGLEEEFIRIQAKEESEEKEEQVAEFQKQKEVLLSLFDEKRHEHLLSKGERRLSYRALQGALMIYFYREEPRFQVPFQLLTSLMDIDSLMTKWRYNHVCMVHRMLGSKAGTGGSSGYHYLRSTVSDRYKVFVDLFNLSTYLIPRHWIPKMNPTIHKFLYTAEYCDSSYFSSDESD

This assay addresses T1, TDO2 (Homo sapiens, UniProt P48775).
T1 construct: decreased levels of NFK in SW48 cells (high TDO expressing cells)
Nature of the assay: TDO2 cell assay (NFK GreenScreen, SW48 cells). In kind it is cell-based. The settings on record: SW48 cells (high TDO expressing), 200 uM tryptophan, 24 hours; Table 3; read-out: TDO2 Cell Fluor EC50.
Broadly, the EC50 is the concentration at which the effect is half-maximal. On to `CCS(=O)(=O)N1CCC2(CCC(C3c4ccccc4-c4cncn43)C2O)CC1` (single isomer, unassigned) [Example 76c], for which the EC50 is 0.071 µM.

On to `OC1c2nccn2CCC1C1c2ccccc2-c2cncn21` (single isomer, unassigned) [Example 88h], for which the EC50 is > 25 µM.

Regarding `CC1(C)CC(O)C1C1c2ccccc2-c2cncn21` (single isomer, unassigned) [Example 22d], the EC50 is 6.9 µM.

With `CS(=O)(=O)N1CCC(O)(C2c3ccccc3-c3cncn32)C1` (single isomer, unassigned) [Example 116d], the EC50 came to 0.73 µM.

For `O[C@@H]1c2nncn2CC[C@H]1[C@H]1c2ccccc2-c2cncn21` (single isomer, unassigned) [Example 146-1c], the EC50 was > 25 µM.

As to `OC1CCCC1C1c2ccc(F)cc2-c2cncn21` (single isomer, unassigned) [Example 20d], the concentration for a half-maximal effect (EC50) amounted to 0.099 µM.

As for `OC(C1c2ccccc2-c2cncn21)C1(F)CC1` (single isomer, unassigned) [Example 154a], the EC50 came out at 0.13 µM.

Take `CC(C)(C(N)=O)C(O)C1c2ccccc2-c2cncn21` (single isomer, unassigned) [Example 155c]: the EC50 came to 21 µM.

In the case of `O=S(=O)(C1CC1)N1CC[C@@H](O)[C@H]([C@H]2c3ccccc3-c3cncn32)C1` (single isomer, unassigned) [Example 70a], the EC50 is > 25 µM.

As for `NC(=O)c1nc2c(s1)CCC(C1c3ccccc3-c3cncn31)C2O` (single isomer, unassigned) [Example 149d], the EC50 is 9.6 µM.

With `N#Cc1ccc2c(c1)CCC(C1c3ccccc3-c3cncn31)C2O` (single isomer, unassigned) [Example 62b], the EC50 stood at 0.31 µM.

Regarding `CC(O)(c1ncc[nH]1)C1c2ccccc2-c2cncn21` (single isomer, unassigned) [Example 143c], the EC50 came to 16 µM.

In the case of `NC(=O)C1CCC(O)(C2c3ccccc3-c3cncn32)CC1` (single isomer, unassigned) [Example 140c], the EC50 was > 25 µM.

As for `OC1c2cncnc2CCC1C1c2ccccc2-c2cncn21` (single isomer, unassigned) [Example 94f], the EC50 turned out to be 12 µM.

In the case of `N#Cc1ccc2c(c1)C(O)C(C1c3ccccc3-c3cncn31)CC2` (single isomer, unassigned) [Example 113g], the EC50 came out at 3.3 µM.

For `CC(C)S(=O)(=O)N1CC[C@@H]([C@H]2c3ccccc3-c3cncn32)[C@H](O)C1` (single isomer, unassigned) [Example 80a], the EC50 is > 25 µM.

On to `Cc1ccc2c(c1)-c1cncn1C2C1COCC1O` (single isomer, unassigned) [Example 171c], for which the EC50 is 5.8 µM.

For `N#Cc1cc2n(n1)CCC(C1c3ccccc3-c3cncn31)C2O` (single isomer, unassigned) [Example 174b], the EC50 was found to be 0.15 µM.

Regarding `Cn1ncc2c1CCC(C1c3ccccc3-c3cncn31)C2O` (single isomer, unassigned) [Example 93f], the EC50 was 0.81 µM.

Take `CC(C)(C)OC(=O)N1CCC(C2c3ccccc3-c3cncn32)C(O)C1` (single isomer, unassigned) [Example 10a, tert-butyl 3-hydroxy-4-(5H-imidazo[5,1-a]isoindol-5-yl)piperidine-1-carboxylate]: the EC50 worked out at 2.1 µM.

With `OC1(C2c3ccccc3-c3cncn32)CCOCC1` (racemic) [Example 43, 4-(5H-imidazo[5,1-a]isoindol-5-yl)tetrahydro-2H-pyran-4-ol], the concentration for a half-maximal effect (EC50) was determined as 2.86 µM.

Take `OCC(O)C1c2ccccc2-c2cncn21` (single isomer, unassigned) [Example 49a, 1-(5H-imidazo[5,1-a]isoindol-5-yl)ethane-1,2-diol]: the EC50 was 18 µM.

With `CC(C)(C)OC(=O)N1CC[C@H](O)[C@@H]([C@@H]2c3ccccc3-c3cncn32)C1` [Example 11b, (3R,4S)-tert-butyl 4-hydroxy-3-((R)-5H-imidazo[5,1-a]isoindol-5-yl)piperidine-1-carboxylate], the EC50 is > 25 µM.

Take `N#Cc1cnn2c1[C@@H](O)[C@H]([C@H]1c3ccccc3-c3cncn31)CC2` (single isomer, unassigned) [Example 156f]: the EC50 was > 25 µM.

For `O[C@@H]1CCCC[C@H]1[C@H]1c2ccccc2-c2cncn21` [Example 03b, (1R,2S)-2-((S)-5H-imidazo[5,1-a]isoindol-5-yl)cyclohexan-1-ol], the EC50 is 0.083 µM.

On to `CC1(C)CCC(C2c3ccccc3-c3cncn32)C1O` (single isomer, unassigned) [Example 23c], for which the EC50 is 0.081 µM.

Regarding `CC(C)S(=O)(=O)N1CCC(C2c3ccccc3-c3cncn32)C(O)C1` (single isomer, unassigned) [Example 89b], the EC50 is > 25 µM.

Take `O[C@H]1c2ccncc2CC[C@@H]1[C@@H]1c2ccccc2-c2cncn21` (single isomer, unassigned) [Example 08b]: the EC50 turned out to be 0.6 µM.

For the compound `CC(=O)N1CCC(O)C(C2c3ccccc3-c3cncn32)C1` (single isomer, unassigned) [Example 12b], the EC50 was > 25 µM.

Take `O=c1cccc2n1CCC(C1c3ccccc3-c3cncn31)C2O` (single isomer, unassigned) [Example 29c, 1-hydroxy-2-(5H-imidazo[5,1-a]isoindol-5-yl)-3,4-dihydro-1H-quinolizin-6(2H)-one]: the 50% effective concentration (EC50) is 24 µM.

In the case of `CS(=O)(=O)c1ccc2c(c1)OCC(C1c3ccccc3-c3cncn31)C2O` (single isomer, unassigned) [Example 91h], the EC50 is > 25 µM.

As for `Cn1cc2c(n1)CCC(C1c3ccccc3-c3cncn31)C2O` (single isomer, unassigned) [Example 130c], the EC50 is > 25 µM.

With `Nc1ccc2c(n1)CCC(C1c3ccccc3-c3cncn31)C2O` (single isomer, unassigned) [Example 121h], the EC50 came out at 4.8 µM.

Turning to `CC(C)(C)OC(=O)N1CC2(CC(C3c4ccccc4-c4cncn43)C2O)C1` (single isomer, unassigned) [Example 41d, tert-butyl 7-hydroxy-6-(5H-imidazo[1,5-b]isoindol-5-yl)-2-azaspiro[3.3]heptane-2-carboxylate], the 50% effective concentration (EC50) was determined as 3.2 µM.

Take `NS(=O)(=O)N1CCC(O)C(C2c3ccccc3-c3cncn32)CC1` (single isomer, unassigned) [Example 101c, 4-hydroxy-5-(5H-imidazo[5,1-a]isoindol-5-yl)azepane-1-sulfonamide]: the EC50 was > 25 µM.

As to `CS(=O)(=O)c1ccc2c(c1)[C@@H](O)[C@H]([C@H]1c3ccccc3-c3cncn31)CC2` (single isomer, unassigned) [Example 142a], the concentration for a half-maximal effect (EC50) was determined as 0.037 µM.

As for `OC1CCOCC1C1c2cc(F)ccc2-c2cncn21` (single isomer, unassigned) [Example 75a], the EC50 was > 25 µM.

Regarding `CC(C)C(O)C1c2ccccc2-c2cncn21` (single isomer, unassigned) [Example 51a], the EC50 is > 25 µM.

For `Cn1ncc2c1CCC(C1c3ccccc3-c3cncn31)C2O` (single isomer, unassigned) [Example 93c], the EC50 worked out at 1.4 µM.

In the case of `O[C@@H]1[C@@H]([C@H]2c3ccccc3-c3cncn32)CC12CCOCC2` [Example 57a, (1R,2R)-2-((S)-5H-imidazo[5,1-a]isoindol-5-yl)-7-oxaspiro[3.5]nonan-1-ol], the concentration for a half-maximal effect (EC50) was determined as 11 µM.
